Values quoted from earlier work as cited in patent US9623004B2, “Administration of a therapeutic amount of genistein to mitigate erectile dysfunction resulting from radiation therapy for prostate cancer only throughout a defined administration period commencing shortly before and concluding after radiation therapy” (Humanetics Corporation, priority 2013, dated 2017).

Legend:
[1] = not given; remark: listed apart in the source

solubility in water: virtually insoluble in water
Structure (SMILES): O=c1c(-c2ccc(O)cc2)coc2cc(O)cc(O)c12 [Genistein, 5,7-dihydroxy-3-(4-hydroxyphenyl)-chromen-4-one]
beneficial effects in other clinical trials [1]: no beneficial effects
